Measurements taken from publication PMC4792557 (Oncotarget, 2015).

Key:
Assay in all cases: cells
[1] = system: H460; design: species or system H23, A549, H358; CellTiter-Glo ATP viability of NSCLC cell lines; conditions: Homo sapiens, NCI-H460, 48 h, read-out: AZD6738 GI50 (uM)
Procedure: (§1) ATP levels were assessed as surrogate measure of viability was assessed using the CellTiter-Glo Luminescent Cell Viability Assay (Promega) and Safire^2 plate reader (Tecan). Raw data were corrected for background luminescence prior to further analysis. […] GI50 values, defined as the dose X at which Y = 50%, were extrapolated from dose response curves. For combination treatments, data were normalized to the mean of untreated controls. Loewe excess matrices were generated using Chalice Analyzer Online (Horizon CombinatoRx) and mean normalized inhibition values. […] Log dose response curves were generated in GraphPad Prism 6 by nonlinear regression (log(inhibitor) vs. normalized response with variable slope) of log-transformed (x = log(x)), normalized data. IC50 values were calculated by Prism 6.

[2] = system: H358; design: species or system H23, H460, A549; CellTiter-Glo ATP viability of NSCLC cell lines; conditions: Homo sapiens, NCI-H358, 48 h, read-out: AZD6738 GI50 (uM)
Procedure: as §1

[3] = system: H23; design: species or system H460, A549, H358; CellTiter-Glo ATP viability of NSCLC cell lines; conditions: Homo sapiens, NCI-H23, 48 h, read-out: AZD6738 GI50 (uM)
Procedure: as §1

[4] = system: A549; design: species or system H23, H460, H358; CellTiter-Glo ATP viability of NSCLC cell lines; conditions: Homo sapiens, A549, 48 h, read-out: AZD6738 GI50 (uM)
Procedure: as §1

`C[C@@H]1COCCN1c1cc(C2([S@](C)(=N)=O)CC2)nc(-c2cc[nH]c3nccc2-3)n1` [AZD6738] showed a GI50 [1] of 1.05 µM, a GI50 [2] of 6.95 µM and a GI50 [3] of 2.38 µM. For the same compound, the GI50 [4] was 5.42 µM.
